The values below come from patent publication US9309238B2, “Imidazo [1,2-a]pyridine compounds, synthesis thereof, and methods of using same” (priority 2009, dated 2016).

Converted amounts (≈) assume the structure as drawn. “And” between values parts separate entries of the source, which are not always exact repeats. Equal entries are not always repeated. Where two headings read alike, the source gives them in different places.

The subject of data set [1] is M. kansasii. The data set can be described thus: NTM activity, M. kansasii. In kind it is cell-based.
Data set [2] deals with M. marinum. The data set can be described thus: NTM activity, M. marinum. In kind it is cell-based.
The subject of data set [3] is M. chelonae. The data set can be described thus: NTM activity, M. chelonae. The data set is classed as cell-based.
Data set [4] relates to M. bovis BCG. The data set is described as follows: NTM activity, M. bovis BCG. In kind it is cell-based.
In data set [5] the test system is M. avium. The data set can be described thus: NTM activity, M. avium. The data set is classed as cell-based.
For data set [6], the system named is H37Rv TB. To be noted: current TB clinical candidates; cited from earlier work.
Data set [7] has as its system MDR-TB. To be noted: current TB clinical candidates; cited from earlier work.
In data set [8] the test system is TB. To be noted: strain not stated; cited from earlier work.
Data set [9] concerns M. smegmatis. The data set can be described thus: cross screen against M. smegmatis. In kind it is cell-based. To be noted: Mycolicibacterium smegmatis.
Data set [10] concerns VERO cells (African Green Monkey epithelial kidney cells). The data set is described as follows: VERO cellular toxicity assay. As to conditions: Chlorocebus sabaeus. The data set is classed as cell-based.
The test system of data set [11] is H37Rv TB. The data set is described as follows: in vitro activity against H37Rv TB (MIC). In kind it is cell-based. To be noted: Mycobacterium tuberculosis.
For data set [12], the system named is HeLa cells. The data set can be described thus: toxicity to HeLa cells. In kind it is cell-based.
In data set [13] the test system is MDR-TB. The data set can be described thus: MIC against MDR-TB (Table 1). As to conditions: Mycobacterium tuberculosis. In kind it is cell-based.
Data set [14] concerns panel of diverse organisms (Gram-positive and Gram-negative strains, yeast, fungi, cancer cell lines, VERO cell line). The data set is described as follows: screen against a panel of diverse control organisms and cell lines. As to conditions: B. subtilis, S. aureus, MRSA, VRE E. faecalis, E. coli, P. aeruginosa, S. salmonicolor, C. albicans, P. notatum, Huvec, K-562, HeLa, PC-3, MCF-7, VERO. In kind it is cell-based. From the text:
In embodiments, compounds ND-8448, ND-8451 and ND-8454 were all screened against a panel of diverse organisms which included four Gram-positive strains (Bacillus subtilis, Staphylococcus aureus, MRSA Staphylococcus aureus, VRE Enterococcus Faecalis), two Gram-negative strains (E. coli, Pseudomonas aeruginosa), a yeast (Sporobolomyces salmonicolor) and fungi (Candida albicans and Penicillium notatum), as well as five cancer cell lines (Huvec, K-562, HeLa, PC-3 and MCF-7) and the VERO cell line to check for mammalian toxicity.

[15] abbreviates: Mycobacterium tuberculosis variant bovis BCG, BCG.

The MIC90 is the lowest concentration that inhibits either 90% of growth or 90% of the strains tested, depending on the study. For the molecule `CC[C@@H](CO)NCCN[C@@H](CC)CO` [EMB, reference compound], the MIC90 in [1] (M. kansasii) was below 7.813 µM; in data set [2] it was 965.56 µM (≈ 197 µg/mL); in data set [3] it was above 2000 µM; in [4] (M. bovis BCG), below 7.813 µM; in [5] it was above 2000 µM.

As a reminder, the MIC is the smallest concentration in the dilution series that meets the test's criterion for growth inhibition. As for `COc1c(N2CCNC(C)C2)c(F)cc2c(=O)c(C(=O)O)cn(C3CC3)c12` (stereo not shown) [Gatifloxacin], the MIC result in [6] was “MIC = 0.03-1.56 μg/mL H37Rv TB”; in [7] it was “MIC = 3.12 μg/mL MDR-TB”.

For the molecule `NNC(=O)c1ccncc1` [INH, Isoniazid, reference compound], the MIC90 in data set [1] (Mycobacterium kansasii) was 5.82 µM (≈ 0.798 µg/mL); in data set [2] (Mycobacterium marinum), above 500 µM; in data set [3] (Mycobacteroides chelonae), above 500 µM; in data set [4] (setting [15]) it was below 1.95 µM; in data set [5] (Mycobacterium avium), above 500 µM.

Take `Cc1c(CN2CCN(c3cccc(C(F)(F)F)c3)CC2)cc(-c2ccccc2)n1NC(=O)c1ccncc1` [LL-3858]: in [8], the MIC result is reported as “MIC = 0.06 μg/mL”.

The term IC50 denotes the concentration at which inhibition is half-maximal. For the molecule `Cc1ccn2c(C(=O)NCc3ccccc3)c(C)nc2c1` [ND-8454, N-benzyl-2,7-dimethylimidazo[1,2-a]pyridine-3-carboxamide], the MIC90 in data set [1] (Mycobacterium kansasii) is 1.32 µM (≈ 0.369 µg/mL); in [9] it was at least 5 µg/mL; in data set [2] (Mycobacterium marinum), above 50 µM; in [3] (Mycobacteroides chelonae) it was above 50 µM; in data set [4] (setting [15]) it was 0.33 µM (≈ 0.0922 µg/mL); in data set [5] (Mycobacterium avium) it was 1.32 µM (≈ 0.369 µg/mL). The same molecule returned a 50% inhibitory concentration (IC50) in data set [10] above 128 µM. Besides, the minimal inhibitory concentration (MIC) in data set [11] was 0.08 µg/mL and 0.286 µM; in [13], 0.02 µg/mL (≈ 0.0716 µM). In addition, the “toxicity to HeLa cells” value in data set [12] is above 50 µM. Moreover, the “activity against control organisms” value in data set [14] was “inactive”.

As to `Cc1ccn2c(C(=O)NCc3cccc(F)c3)c(C)nc2c1` [ND-9361], in data set [9], the MIC90 was at least 5 µg/mL.

With `Cc1ccn2c(C(=O)NCc3ccc(Oc4ccc(F)cc4)cc3)c(C)nc2c1` [ND-9758], the MIC90 in data set [1] (M. kansasii) is below 0.195 µM; in data set [2], 5.21 µM (≈ 2.03 µg/mL); in data set [3], 6.07 µM (≈ 2.36 µg/mL); in data set [4] (M. bovis BCG) it was below 0.195 µM; in [5], below 0.195 µM.

With `Cc1ccn2c(C(=O)NCc3cccc(OC(C)C)c3)c(C)nc2c1` [ND-9872], the MIC90 is 0.71 µM (≈ 0.24 µg/mL) in [1] (M. kansasii); above 50 µM in data set [2]; above 50 µM in data set [3]; below 0.195 µM in [4] (M. bovis BCG); 0.71 µM (≈ 0.24 µg/mL) in [5].

As for `Cc1ccn2c(C(=O)NCc3ncc(C(F)(F)F)cc3Cl)c(C)nc2c1` [ND-9902], the MIC90 in data set [1] (M. kansasii) was 4.42 µM (≈ 1.69 µg/mL); in [2], above 50 µM; in data set [3], above 50 µM; in data set [4] (M. bovis BCG) it was 0.75 µM (≈ 0.287 µg/mL); in data set [5], 4.42 µM (≈ 1.69 µg/mL).

As for `Cc1ccc2nc(C)c(C(=O)NCc3ccc(S(C)(=O)=O)cc3)n2c1` [ND-9965], the MIC90 in data set [1] (M. kansasii) was 6.03 µM (≈ 2.16 µg/mL); in [2], above 50 µM; in data set [3], above 50 µM; in data set [4] (M. bovis BCG) it was 0.23 µM (≈ 0.0822 µg/mL); in [5], 6.03 µM (≈ 2.16 µg/mL).

For `C[C@]1(COc2ccc(N3CCC(Oc4ccc(OC(F)(F)F)cc4)CC3)cc2)Cn2cc([N+](=O)[O-])nc2O1` [OPC-67683], the MIC result in [6] and in [7] was “MIC of 0.006-0.024 μg/mL” in each case.

In the case of `COc1nc2ccc(Br)cc2cc1[C@@H](c1ccccc1)[C@@](O)(CCN(C)C)c1cccc2ccccc12` [TMC207], the minimum inhibitory concentration (MIC) result is “MIC = 0.06 μg/mL vs. H37Rv and MDR-TB” in data set [6]; “MIC = 0.06 μg/mL vs. H37Rv and MDR-TB” in data set [7].
